Data taken from patent US20240270821A1, “GIP/GLP1/GCG TRI-RECEPTOR AGONISTS AND USES THEREOF” (priority 2023, published 2024).
Where two headings read alike, the source gives them in different places. Starred links: 1 amine or outer side, 2 acyl side, 3 side chain; linkers in the order of their positions; H or OH if unused. Non-standard residues stand in square brackets, D forms with d. Groups on a side chain read outwards from the residue. No end group written: not given here. *: point of attachment. C18 diacid = O=C(O)CCCCCCCCCCCCCCCCC(=O)*; αMePhe(2-F) = C[C@](N)(Cc1ccccc1F)C(=O)O; γGlu = O=C(O)[C@H](CCC(=O)[*:2])N[*:1]; αMe4Pal = C[C@](N)(Cc1ccncc1)C(=O)O; αMeY = C[C@](N)(Cc1ccc(O)cc1)C(=O)O; 4Pal = N[C@@H](Cc1ccncc1)C(=O)O; αMeL = CC(C)C[C@](C)(N)C(=O)O; αMeS = C[C@](N)(CO)C(=O)O; Orn = NCCC[C@H](N)C(=O)O; AEEA = NCCOCCOCC(=O)O; Aib = CC(C)(N)C(=O)O

Experiments:
hGIPR [1] = target: T1, hGIPR (Homo sapiens, UniProt P48546); assay: Functional cAMP activity in the presence of 1% HSA; type: cell-based; conditions: read-out: cAMP Rel EC50, hGIPR
T1 sequence (P48546 22-466): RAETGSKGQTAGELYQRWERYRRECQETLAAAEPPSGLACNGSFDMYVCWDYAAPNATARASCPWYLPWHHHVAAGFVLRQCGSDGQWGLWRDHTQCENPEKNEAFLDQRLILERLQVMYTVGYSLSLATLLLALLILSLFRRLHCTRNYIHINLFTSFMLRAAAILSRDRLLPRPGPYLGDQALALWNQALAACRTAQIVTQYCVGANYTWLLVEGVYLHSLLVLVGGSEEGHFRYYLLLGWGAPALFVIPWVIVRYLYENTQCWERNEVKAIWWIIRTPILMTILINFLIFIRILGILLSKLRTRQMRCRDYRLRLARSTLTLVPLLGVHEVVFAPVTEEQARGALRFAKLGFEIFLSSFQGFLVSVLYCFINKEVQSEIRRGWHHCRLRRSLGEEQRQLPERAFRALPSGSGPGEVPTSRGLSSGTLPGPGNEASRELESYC

hGLP-1R [2] = target: T2, hGLP-1R (Homo sapiens, UniProt P43220); assay: Functional cAMP activity in the presence of 1% HSA; type: cell-based; conditions: read-out: cAMP Rel EC50, hGLP-1R
T2 sequence (P43220 24-463): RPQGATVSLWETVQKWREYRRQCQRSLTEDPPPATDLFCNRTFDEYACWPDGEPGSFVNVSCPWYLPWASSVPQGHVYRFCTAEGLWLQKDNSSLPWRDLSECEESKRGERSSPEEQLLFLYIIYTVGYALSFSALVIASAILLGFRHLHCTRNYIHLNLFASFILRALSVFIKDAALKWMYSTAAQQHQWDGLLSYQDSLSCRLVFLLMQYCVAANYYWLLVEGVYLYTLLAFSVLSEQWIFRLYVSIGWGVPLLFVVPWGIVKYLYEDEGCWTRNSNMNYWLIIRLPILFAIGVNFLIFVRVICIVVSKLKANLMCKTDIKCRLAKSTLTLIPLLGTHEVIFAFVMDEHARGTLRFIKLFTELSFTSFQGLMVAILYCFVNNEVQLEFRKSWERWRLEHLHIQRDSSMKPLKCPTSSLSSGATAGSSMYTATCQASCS

human GcgR = human GcgR (Homo sapiens, UniProt P47871); assay: Functional cAMP activity in the presence of 1% HSA; type: cell-based; conditions: read-out: cAMP Rel EC50, hGcgR
Sequence of human GcgR (P47871 26-477): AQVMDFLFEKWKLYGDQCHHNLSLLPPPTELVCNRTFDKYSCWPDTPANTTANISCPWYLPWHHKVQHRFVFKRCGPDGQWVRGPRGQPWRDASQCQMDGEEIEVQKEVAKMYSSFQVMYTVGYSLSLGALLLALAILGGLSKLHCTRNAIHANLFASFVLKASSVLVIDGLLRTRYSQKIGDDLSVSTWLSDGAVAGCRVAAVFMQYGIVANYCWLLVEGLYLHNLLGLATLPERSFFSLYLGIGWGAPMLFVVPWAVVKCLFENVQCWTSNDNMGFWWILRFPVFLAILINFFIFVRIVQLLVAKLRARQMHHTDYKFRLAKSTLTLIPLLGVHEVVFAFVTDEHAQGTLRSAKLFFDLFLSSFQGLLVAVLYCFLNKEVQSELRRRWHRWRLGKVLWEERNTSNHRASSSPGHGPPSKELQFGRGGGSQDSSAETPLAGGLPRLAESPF

hGIPR [3] = target: T1, hGIPR; assay: Functional cAMP activation in the presence of 0.1% casein (no HSA); type: cell-based; conditions: read-out: Relative cAMP EC50, hGIPR;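 on Relative cAMP EC50, hGIPR: intracellular cAMP rise after 30 min at 37 °C read by HTRF against a standard curve, scaled between buffer alone (0%) and top control ligand concentration (100%), four-parameter fit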;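 on Relative cAMP EC50, hGLP-1R: intracellular cAMP rise after 30 min at 37 °C read by HTRF, normalized between buffer only (0%) and maximal control ligand (100%), four-parameter variable-slope fit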;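 on Relative cAMP EC50, hGcgR: intracellular cAMP rise after 30 min at 37 °C, read by HTRF against a cAMP standard curve, scaled from buffer only (0%) to maximal control ligand response (100%)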
hGLP-1R [4] = target: T2, hGLP-1R; assay: as above; type: cell-based; conditions: read-out: Relative cAMP EC50, hGLP-1R
hGcgR = hGcgR (Homo sapiens, UniProt P47871); assay: as above; type: cell-based; conditions: read-out: Relative cAMP EC50, hGcgR;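 further: intracellular cAMP rise after 30 min at 37 °C, read by HTRF against a cAMP standard curve, scaled from buffer only (0%) to maximal control ligand response (100%)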
Sequence of hGcgR (P47871 26-477): as above

[5] = test system: Intestinal organoid from Göttingen minipig jejunum tissue, 2D monolayer; assay: Cell based in vitro permeability (Papp) assay; type: in vitro ADME
Experimental: Intestinal organoid from Göttingen minipig jejunum tissue and its 2D monolayer are generated using the protocol previously described ([…]-Thiele, […].; Wells, J. M., Optimized procedures for generating an enhanced, near physiological 2D culture system from porcine intestinal organoids. […] After 7 days of culture, organoids are dissociated into single cells by TrypLE (GIbco), and the single cell suspension is added in 24-well transparent transwell inserts (0.3 cm^2, Falcon, BD). […] Samples from the basal compartment are collected at 20 min in the presence of C10. Peptide concentrations in the apical and basal compartments are measured by LC/MS, and the apparent permeability coefficient (Papp) is calculated as previously described (Twarog, C.; Liu, K.; O'Brien, P. J.; Dawson, […] head-to-head Caco-2 assay comparison of the mechanisms of action of the intestinal permeation enhancers: SNAC and sodium caprate (C10).

[6] = in the presence of 0.1% casein (no HSA), geometric mean

Compound	EC50 (hGIPR [1])	EC50 (hGLP-1R [2])	EC50 (human GcgR)	EC50 (hGIPR [3])	EC50 (hGLP-1R [4])	EC50 (hGcgR)	Relative Papp (Compared to internal standard) [5]	EC50 (hGIPR [3]; [6])	EC50 (hGLP-1R [4]; [6])	EC50 (hGcgR; [6])
H-Y[Aib]QGT[αMePhe(2-F)]TSD[4Pal][αMeS]I[αMeL]LD[Orn]K([γGlu-γGlu-C18 diacid])AQ[αMe4Pal]EFI[dE][αMeY]LVEGGPSSGEPPPSGS-NH2 [Example 737]	0.498 nM	22.3 nM	122 nM	0.00804 nM	0.285 nM	1.34 nM	0.69	–	–	–
H-Y[Aib]QGT[αMePhe(2-F)]TSD[4Pal][αMeS]I[αMeL]LD[Orn]K([γGlu-γGlu-C18 diacid])AQ[αMe4Pal]EFI[dE][αMeY]LIEGGPSSGAPPPEGGGE-NH2 [Example 761]	0.635 nM	26.1 nM	162 nM	0.00686 nM	0.226 nM	1.5 nM	0.53	–	–	–
H-Y[Aib]QGTFTSDFS[Orn][αMeL]LDKK([γGlu-γGlu-C18 diacid])AQ[Aib]AFIEYLLEGGPSSGAPPPGGS-NH2 [Example 198]	38.8 nM	761 nM	1300 nM	–	–	–	0.12	0.182 nM	4.36 nM	6.85 nM
CC[C@H](C)[C@H](NC(=O)[C@H](Cc1ccccc1)NC(=O)[C@H](CCCN)NC(=O)C(C)(C)NC(=O)[C@H](CCC(N)=O)NC(=O)[C@H](C)NC(=O)[C@H](CCCCNC(=O)[C@@H](CCC(=O)O)NC(=O)CC[C@H](NC(=O)CCCCCCCCCCCCCCCCC(=O)O)C(=O)O)NC(=O)[C@H](CCCN)NC(=O)[C@H](CC(=O)O)NC(=O)[C@H](CC(C)C)NC(=O)[C@](C)(CC(C)C)NC(=O)[C@@H](NC(=O)[C@](C)(CO)NC(=O)[C@H](Cc1ccncc1)NC(=O)[C@H](CC(=O)O)NC(=O)[C@H](CO)NC(=O)[C@@H](NC(=O)[C@](C)(Cc1ccccc1F)NC(=O)[C@@H](NC(=O)CNC(=O)[C@H](CCC(N)=O)NC(=O)C(C)(C)NC(=O)[C@@H](N)Cc1ccc(O)cc1)[C@@H](C)O)[C@@H](C)O)[C@@H](C)CC)C(=O)N[C@H](CCC(=O)O)C(=O)N[C@@](C)(Cc1ccc(O)cc1)C(=O)N[C@@H](CC(C)C)C(=O)N[C@@H](CCC(N)=O)C(=O)N[C@@H](CCC(=O)O)C(=O)NCC(=O)NCC(=O)N1CCC[C@H]1C(=O)N[C@@H](CO)C(=O)N[C@@H](CO)C(=O)NCC(=O)N[C@@H](CCC(=O)O)C(=O)N1CCC[C@H]1C(=O)N1CCC[C@H]1C(=O)N1CCC[C@H]1C(=O)N[C@@H](CCC(=O)O)C(=O)NCC(=O)N[C@H](C(=O)N[C@@H](CCC(=O)O)C(=O)N[C@@H](CCC(=O)O)C(N)=O)[C@@H](C)O [Example 595]	1.73 nM	30.4 nM	353 nM	0.0338 nM	0.53 nM	5.06 nM	0.55	–	–	–
H-Y[Aib]QGTFTSDFS[Orn][αMeL]LDKK([AEEA-γGlu-C18 diacid])AQ[Aib]AFIEYLLEGGPSSGAPPPEGS-NH2 [Example 130]	60.5 nM	865 nM	1080 nM	–	–	–	0.06	0.411 nM	4.29 nM	3.74 nM
H-Y[Aib]QGTFTSDFS[Orn][αMeL]LDKK([AEEA-AEEA-γGlu-C18 diacid])AQ[Aib]AFIEYLLE[Aib]GHSSGAPPPSGT-NH2 [Example 182]	9.95 nM	398 nM	1480 nM	–	–	–	0.12	0.0781 nM	4.8 nM	5.33 nM
H-Y[Aib]QGT[αMePhe(2-F)]TSD[4Pal][αMeS]I[αMeL]LD[Orn]K([γGlu-γGlu-C18 diacid])AQ[αMe4Pal]EFI[dE][αMeY]LIEGGPSSGAPPPSGGGE-NH2 [Example 743]	0.432 nM	21.2 nM	133 nM	0.00694 nM	0.259 nM	1.49 nM	0.56	–	–	–
H-Y[Aib]QGT[αMePhe(2-F)]TSD[4Pal]SI[αMeL]LD[Orn]K([AEEA-γGlu-C18 diacid])AQ[αMe4Pal][Orn]FI[dE][αMeY]LIEGGPSSGEPPPEGE-NH2 [Example 675]	1.16 nM	25 nM	207 nM	0.0111 nM	0.254 nM	2.15 nM	0.36	–	–	–
H-Y[Aib]QGT[αMePhe(2-F)]TSD[4Pal][αMeS]I[αMeL]LD[Orn]K([AEEA-γGlu-C18 diacid])AQ[αMe4Pal]EFI[dE][αMeY]LIEGGPSSGEPPPSGS-NH2 [Example 710]	0.589 nM	28.7 nM	126 nM	0.00578 nM	0.274 nM	1.52 nM	0.35	–	–	–
H-Y[Aib]QGTFTSD[4Pal]S[Orn][αMeL]LDKK([AEEA-γGlu-C18 diacid])AQ[αMe4Pal]AFIEYLIE[Aib]GPSSGAPPPSGS-NH2 [Example 808]	27.3 nM	406 nM	286 nM	–	–	–	0.29	0.187 nM	3.58 nM	1.65 nM
Y[Aib]QGTFTSDFS[Orn][αMeL]LDKK([AEEA-γGlu-C18 diacid])AQ[Aib]AFIEYLLE[dA]GPSSGEPPPSGE-NH2 [Example 135]	23.4 nM	472 nM	557 nM	–	–	–	0.04	0.246 nM	3.3 nM	2.53 nM
H-Y[Aib]QGT[αMePhe(2-F)]TSD[4Pal]SILLDKK([γGlu-γGlu-C18 diacid])AQ[Aib]AFIE[αMe4Pal]LEEGGPSSGAPPPSGTE-NH2 [Example 552]	1.67 nM	86.2 nM	289 nM	0.0177 nM	0.804 nM	2.53 nM	0.53	–	–	–
H-Y[Aib]QGT[αMePhe(2-F)]TSD[4Pal]SILLDKK([γGlu-γGlu-C18 diacid])AQ[Aib]AFIE[αMeY]LEEGGPSSGAPPPSGSGE-NH2 [Example 666]	1.39 nM	32.3 nM	224 nM	0.0203 nM	0.337 nM	2 nM	0.85	–	–	–
